Test results taken from US4818761A, “2-(4-pyridylaminomethyl)-benzimidazole derivatives having antiviral activity” (priority 1986, dated 1989).
Converted amounts (≈) assume the structure as drawn.

Assays:
[1] = in vitro; details: monkey, llc-mk2 cells
[2] = tested on: coxsackievirus type B4 (CB4); assay: Inhibition of CB4 cytopathogenic effect (CPE) in LLC-MK2 cells; assay type: cell-based; details: for CI CB4 (C)/(A): CI = CD50 (LLC-MK2)/IC50 (virus CPE); for IC50: Coxsackievirus, * Virus CPE inhibition assay, LLC-MK2 cells, 37° C.
[3] = tested on: rhinovirus type 14 (HRV14); assay: Inhibition of HRV14 plaque formation in HeLa cells; assay type: cell-based; details: for IC50: Enterovirus, HRV14, plaque reduction, HeLa cells, 33° C.; for CI HRV14 (D)/(B): CI = CD50 (HeLa)/IC50 (plaque)
[4] = tested on: enterovirus type 70 (EV70); assay: Inhibition of EV70 cytopathogenic effect (CPE) in LLC-MK2 cells; assay type: cell-based; details: for IC50: Enterovirus D, * Virus CPE inhibition assay, LLC-MK2 cells, 33° C.; for CI EV70 (C)/(A): CI = CD50 (LLC-MK2)/IC50 (virus CPE)
[5] = in vitro; details: human, hela cells
[6] = tested on: coxsackievirus type B4 (CB4); assay: Inhibition of CB4 plaque formation in LLC-MK2 cells; assay type: cell-based; details: for CI CB4 (C)/(A): CI = CD50 (LLC-MK2)/IC50 (plaque); for IC50: Coxsackievirus, plaque reduction, LLC-MK2 cells, 37° C.
[7] = tested on: enterovirus type 70 (EV70); assay: Inhibition of EV70 plaque formation in LLC-MK2 cells; assay type: cell-based; details: for CI EV70 (C)/(A): CI = CD50 (LLC-MK2)/IC50 (plaque); for IC50: Enterovirus D, plaque reduction, LLC-MK2 cells, 33° C.
[8] = tested on: poliovirus type 2 (Polio2); assay: microbe, parasite or virus in culture; assay type: cell-based; details: for IC50: Enterovirus C, LLC-MK2, read-out: IC50 Polio2; for CI Polio2 (C)/(A): CI = CD50 (LLC-MK2)/IC50 (plaque)
[9] = tested on: rhinovirus type 14 (HRV14); assay: Inhibition of HRV14 cytopathogenic effect (CPE) in HeLa cells; assay type: cell-based; details: Enterovirus, HRV14; * Virus CPE inhibition assay, HeLa cells, 33° C.

Compound | CC50 [1] [µg/mL] | CI CB4 (C)/(A) [2] | IC50 [2] [µg/mL] | IC50 [3] [µg/mL] | IC50 [4] [µg/mL] | CC50 [5] [µg/mL] | CI CB4 (C)/(A) [6] | IC50 [6] [µg/mL] | CI EV70 (C)/(A) [7] | IC50 [7] [µg/mL] | CI HRV14 (D)/(B) [3] | IC50 [8] [µg/mL] | IC50 [9] [µg/mL] | CI EV70 (C)/(A) [4] | CI Polio2 (C)/(A) [8]
c1ccc(Cn2c(CNc3ccncc3)nc3ccccc32)cc1 [XXIV, 1-benzyl-2-(4-pyridylaminomethyl)benzimidazole] | > 2000 | > 36 | 56.2 (≈ 179 µM) | > 50 | > 100 |  |  |  |  |  |  |  |  |  | 
Fc1ccc2[nH]c(CNc3ccncc3)nc2c1 [II] | 177 (≈ 730 µM) |  |  | 14.5 (≈ 59.9 µM) |  | 56.2 (≈ 232 µM) | 29 | 6 (≈ 24.8 µM) | 126 | 1.4 (≈ 5.78 µM) | 4 | > 25 |  |  | 
COc1ccccc1-n1c(CNc2ccncc2)nc2ccccc21 [LXVII] |  |  | > 100 |  | > 100 |  |  |  |  |  |  |  |  |  | 
c1ccc(Oc2ccc3[nH]c(CNc4ccncc4)nc3c2)cc1 [LXXIV] | > 100 |  | > 100 | 17.8 (≈ 56.3 µM) | > 100 | > 100 |  |  |  |  | > 6 |  |  |  | 
Ic1ccc(-n2c(CNc3ccncc3)nc3ccccc32)cc1 [LXI] | > 100 |  | > 100 |  | > 100 |  |  |  |  |  |  |  |  |  | 
CCn1c(CNc2ccncc2)nc2cc(C)ccc21 [XL, 1-ethyl-2-(4-pyridylaminomethyl)-5-methyl benzimidazole] | > 100 | > 2 | 56.2 (≈ 211 µM) |  | > 100 |  |  |  |  |  |  |  |  |  | 
COc1ccc(-n2c(CNc3ccncc3)nc3ccccc32)cc1 [LXVIII] | > 100 | > 18 | 5.6 (≈ 16.9 µM) |  | > 100 |  |  |  |  |  |  |  |  |  | 
Brc1ccc(-n2c(CNc3ccncc3)nc3ccccc32)cc1 [LX] | > 100 |  |  | 39.9 (≈ 105 µM) |  | > 100 | > 100 | 1 (≈ 2.64 µM) | > 53 | 1.9 (≈ 5.01 µM) | > 3 | > 50 |  |  | 
FC(F)(F)c1ccc(-n2c(CNc3ccncc3)nc3ccccc32)cc1 [LXIV] | > 100 | > 18 | 5.6 (≈ 15.2 µM) |  | > 100 |  |  |  |  |  |  |  |  |  | 
c1ccc2c(c1)nc(CNc1ccncc1)n2C1CCCC1 [XVII] | 1410 (≈ 4840 µM) | > 253 | 5.6 (≈ 19.2 µM) | > 50 | > 100 |  |  |  |  |  |  |  |  |  | 
Brc1ccc2[nH]c(CNc3ccncc3)nc2c1 [I, 2-(4-pyridylaminomethyl)-5-(6)-bromobenzimidazole] | 312 (≈ 1030 µM) |  |  | 5.8 (≈ 19.1 µM) |  | 17.8 (≈ 58.7 µM) | 17 | 18 (≈ 59.4 µM) | 101 | 3.1 (≈ 10.2 µM) | 3 | > 25 |  |  | 
CC=Cn1c(CNc2ccncc2)nc2ccccc21 [XIV] | > 2000 |  |  |  | > 100 |  | > 36 | 56.2 (≈ 213 µM) |  |  |  |  |  |  | 
CC(C)Cn1c(CNc2ccncc2)nc2ccccc21 [XLIX] | > 2000 | > 952 | 2.1 (≈ 7.49 µM) |  |  |  |  |  |  | > 100 |  |  | > 100 |  | 
Clc1ccc(-n2c(CNc3ccncc3)nc3ccccc32)cc1Cl [LXIX] | > 100 | > 18 | 5.6 (≈ 15.2 µM) |  | 5.6 (≈ 15.2 µM) |  |  |  |  |  |  |  |  | > 18 | 
Cc1ccc(-n2c(CNc3ccncc3)nc3ccccc32)cc1C [LXX] | > 100 |  |  | 40.7 (≈ 124 µM) |  | > 100 | > 6 | 16 (≈ 48.7 µM) | > 15 | 6.5 (≈ 19.8 µM) | > 2 | > 50 |  |  | 
CC(C)c1ccc2[nH]c(CNc3ccncc3)nc2c1 [VI] | > 1000 |  |  | 16.5 (≈ 61.9 µM) |  | 56.2 (≈ 211 µM) | > 15 | 69 (≈ 259 µM) | > 476 | 2.1 (≈ 7.88 µM) | 3 | > 100 |  |  | 

Compound | CC50 [1] [µg/mL] | CI CB4 (C)/(A) [2] | IC50 [2] [µg/mL] | IC50 [3] [µg/mL] | IC50 [4] [µg/mL] | CC50 [5] [µg/mL] | CI CB4 (C)/(A) [6] | IC50 [6] [µg/mL] | CI EV70 (C)/(A) [7] | IC50 [7] [µg/mL] | CI HRV14 (D)/(B) [3] | IC50 [8] [µg/mL] | IC50 [9] [µg/mL] | CI EV70 (C)/(A) [4] | CI Polio2 (C)/(A) [8]
OCCn1c(CNc2ccncc2)nc2ccccc21 [XX] | > 2000 |  |  |  | > 100 |  |  | > 100 |  |  |  |  |  |  | 
OCCCn1c(CNc2ccncc2)nc2ccccc21 [LI] | > 1000 | 18 | 56.2 (≈ 199 µM) | > 100 | > 100 |  |  |  |  |  |  |  |  |  | 
CCc1ccc2c(c1)nc(CNc1ccncc1)n2CC [XLI] | > 100 |  | > 100 |  | > 100 |  |  |  |  |  |  |  |  |  | 
Cc1cc(C)c(-n2c(CNc3ccncc3)nc3ccccc32)c(C)c1 [LXXII] | > 100 |  | > 100 |  | > 100 |  |  |  |  |  |  |  |  |  | 
Cc1ccc(-n2c(CNc3ccncc3)nc3ccccc32)cc1F [LXXI] | > 100 |  |  | 49.7 (≈ 150 µM) |  | > 100 | > 31 | 3.2 (≈ 9.63 µM) | > 25 | 4 (≈ 12 µM) | > 2 | > 50 |  |  | 
Cc1cccc(-n2c(CNc3ccncc3)nc3ccccc32)c1 [LXIII] | > 100 | > 18 | 5.6 (≈ 17.8 µM) |  |  |  |  |  | > 18 | 5.6 (≈ 17.8 µM) |  |  |  |  | 
CC(=O)OCCOCn1c(CNc2ccncc2)nc2ccccc21 [LV] | > 100 |  |  | 15.6 (≈ 45.8 µM) |  | > 100 | 8 | 11.9 (≈ 35 µM) | > 63 | 1.6 (≈ 4.7 µM) | > 6 | 17.6 (≈ 51.7 µM) |  |  | > 6
Clc1ccc2c(c1)nc(CNc1ccncc1)n2-c1ccccc1 [XLVI] | > 100 | > 56 | 1.8 (≈ 5.38 µM) |  | 13.2 (≈ 39.4 µM) |  |  |  |  |  |  |  |  | > 8 | 
CCCCCCCCn1c(CNc2ccncc2)nc2ccccc21 [XIX] | 354 (≈ 1050 µM) |  |  |  | > 100 |  | 24 | 14.8 (≈ 44 µM) |  |  |  |  |  |  | 
Cc1cc2nc(CNc3ccncc3)[nH]c2cc1Cl [XXIX] | 177 (≈ 648 µM) |  |  | 3.8 (≈ 13.9 µM) |  | 56.2 (≈ 206 µM) | 15 | 11.5 (≈ 42.2 µM) | 118 | 1.5 (≈ 5.5 µM) | 15 | 52 (≈ 191 µM) |  |  | 3
Cc1ccccc1-n1c(CNc2ccncc2)nc2ccccc21 [LXII] | > 100 |  | > 100 |  | > 100 |  |  |  |  |  |  |  |  |  | 
Clc1ccc2nc(CNc3ccncc3)n(-c3ccccc3)c2c1 [XLVII] | > 300 |  |  | 4.4 (≈ 13.1 µM) |  | 17.8 (≈ 53.2 µM) | > 250 | 1.2 (≈ 3.58 µM) | > 130 | 2.3 (≈ 6.87 µM) | 4 | > 100 |  |  | 
c1ccc(CCCn2c(CNc3ccncc3)nc3ccccc32)cc1 [LVI] | > 100 |  | > 100 |  | > 100 |  |  |  |  |  |  |  |  |  | 
Clc1ccc(-n2c(CNc3ccncc3)nc3ccccc32)cc1 [LIX] | > 1000 |  |  | 25 (≈ 74.7 µM) |  | > 100 | > 1,176 | 0.85 (≈ 2.54 µM) | > 833 | 1.2 (≈ 3.58 µM) | > 4 | 9.6 (≈ 28.7 µM) |  |  | > 111
OCCCCn1c(CNc2ccncc2)nc2ccccc21 [LII] | > 100 | > 6 | 17.8 (≈ 60.1 µM) |  | > 100 |  |  |  |  |  |  |  |  |  | 
